Where no end group is shown, it is not given here.
What was measured:
[1] = tested on: human conjunctival epithelial cells and rabbit cornea; details: cited from earlier work
Serum stability analysis = format: in vitro ADME; details: human serum (Sigma H4522), 1 mM peptide in water mixed 1:1 (v/v) with serum, 37 °C, SDS‐PAGE, Coomassie band intensity (ImageJ); for half-life at 0.5 mM: 0–72 h
Procedure: (§1) Figure 6 Molecular characterization of TDIPs. (a) Co‐immunoprecipitation of TIR domains and TDIPs. Lysates of HEK293T cells expressing FLAG‐tagged TIR domains were incubated with the indicated TDIPs. Peptides were blotted with an antibody against the penetratin sequence. Created with BioRender.com. (b) Fluorescence polarization binding assay of the Cy5‐labeled TDIP1 against TIR domains of Myd88, TRAM, and MAL. Error bars represent ± SD (n = 3). (c) Human serum stability (half‐life) of the TDIPs was measured. The percentage of the remaining peptide was quantified up to 72 h. (d) The secondary structure of the selected TDIPs was determined by circular dichroism. […] (e) TDIP1 and its truncates were compared for inhibition of TLR4 signaling by using HEK‐Blue^TM hTLR4 cells. Data are presented as mean ± SD. ^****p < 0.0001. All significance is versus the LPS‐treated CP group. n.s., not significant.
The first step of the serum stability analysis was performed as previously described^[ [60] ^] with a minor modification. Human serum (Sigma‐Aldrich, H4522) was thawed on ice and centrifuged at 18 000 × g for 10 min at 4 °C to remove lipids. The supernatant was incubated at 37 °C for 15 min to activate the proteins. Each peptide was prepared at a concentration of 1 mM in ultrapure water and mixed with human serum in a 1:1 (v/v) ratio. The mixed solutions were incubated at 37 °C for various periods (0, 1, 3, 6, 12, 24, 48, and 72 h). A mixture of ultrapure water and human serum was used as the blank. A total of 3 µg of the peptide was loaded on an SDS–polyacrylamide gel and stained with InstantBlue Coomassie Protein Stain (Abcam). The intensity of the remaining peptide bands was quantified using ImageJ and plotted.

[2] = parameters: method as in PMID 19661804; details: possibly due to late administration; cited from earlier work
Source text: (§2) Treatment of macrophage cells with synthetic TDIPs containing a cell‐penetrating moiety suppressed TLR4‐dependent inflammatory pathways in a dose‐dependent manner. Moreover, the selected TDIPs exerted broad‐spectrum TLR‐inhibitory effects by inhibiting interactions between TIR domain‐containing proteins, which enhanced the therapeutic efficacy in the murine sepsis model. Although we applied TDIP simultaneously with LPS, the timing of TLR inhibitor administration remains a critical consideration. ...

[3] = tested on: polymicrobial sepsis model; parameters: method as in PMID 18305095; details: administration 3 h before or 6 h after CLP surgery; cited from earlier work
Source text: as §2

TIR domain of MAL = target: T1, TIR domain of MAL (Homo sapiens, UniProt P58753); experiment: Fluorescence polarization (FP) assay, MAL TIR; format: binding; details: Cy5‐labeled TDIP1 50 nM, TIR domain diluted 1:1 from 40 µM, 30 min RT, ± SD, n = 3, read-out: apparent Kd against MAL
T1 construct: MAL (residues 79–221); 6xHis; made in house; host or cells: E. coli BL21 (DE3)
Procedure: as §1
(§3) Fluorescence polarization assays were carried out using a 384‐well black non‐binding microplate (Corning, CLS4514). TDIP1 peptide was synthesized by ANYGEN with N‐terminal Cy5 at >95% purity. The lyophilized peptide was reconstituted in ultrapure water (Invitrogen) to a concentration of 1 mM. The peptide was diluted with 10× PBS to make a final solution of 100 nM. […] After mixing the samples, the plate was incubated for 30 min at RT and read using an Infinite M1000 (Tecan, Mannedorf, Switzerland).

TIR domain of MyD88 = target: T2, TIR domain of MyD88 (Homo sapiens, UniProt Q99836); experiment: Fluorescence polarization (FP) assay, MyD88 TIR; format: binding; details: Cy5‐labeled TDIP1 50 nM, TIR domain diluted 1:1 from 40 µM, 30 min RT, ± SD, n = 3, read-out: apparent Kd against MyD88
T2 construct: MyD88 (residues 148–296); 6xHis; made in house; host or cells: E. coli BL21 (DE3)
Procedure: as §1, §3

TIR domain of TRAM = target: T3, TIR domain of TRAM (Homo sapiens, UniProt Q86XR7); experiment: Fluorescence polarization (FP) assay, TRAM TIR; format: binding; details: Cy5‐labeled TDIP1 50 nM, TIR domain diluted 1:1 from 40 µM, 30 min RT, ± SD, n = 3, read-out: apparent Kd against TRAM
T3 construct: purified TIR domains of MyD88, TRAM, and MAL
Procedure: as §1, §3

T2 sequence (Q99836 148-296): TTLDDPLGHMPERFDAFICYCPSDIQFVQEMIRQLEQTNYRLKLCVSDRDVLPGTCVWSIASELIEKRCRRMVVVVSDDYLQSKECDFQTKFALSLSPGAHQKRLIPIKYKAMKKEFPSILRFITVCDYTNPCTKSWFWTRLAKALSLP
T3 sequence (Q86XR7 73-229 limits assumed): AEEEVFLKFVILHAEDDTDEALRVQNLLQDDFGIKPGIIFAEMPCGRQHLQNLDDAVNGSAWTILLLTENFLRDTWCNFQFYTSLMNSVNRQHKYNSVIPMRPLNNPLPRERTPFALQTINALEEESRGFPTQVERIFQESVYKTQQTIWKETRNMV
T1 sequence (P58753 79-221): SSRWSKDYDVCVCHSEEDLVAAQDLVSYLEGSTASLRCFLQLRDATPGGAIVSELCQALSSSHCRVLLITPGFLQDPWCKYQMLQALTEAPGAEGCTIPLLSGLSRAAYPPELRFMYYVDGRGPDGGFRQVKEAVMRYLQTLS

penetratin
cellular and tissue toxicity compared with other CPPs such as TAT and polyarginine [1]: lower cellular and tissue toxicity
cellular uptake [1]: excellent cellular uptake

RQIKIWFQNRRMKWKKLFFWESLKQLLRSDGR [TDIP6]
remaining peptide after 48 h of incubation in human serum (Serum stability analysis): up to 50%

RQIKIWFQNRRMKWKKLVAHEISKKMKIFATI [TDIP20]
half-life at 0.5 mM (Serum stability analysis): < 1 h

RQIKIWFQNRRMKWKKTFLGHLYNALVQAGIH [TDIP5]
half-life at 0.5 mM (Serum stability analysis): ~6 h

CCCCCC/C=C\CCCCCCCCCC(=O)N[C@H]1[C@H](OC[C@H]2O[C@H](OP(=O)(O)O)[C@H](NC(=O)CC(=O)CCCCCCCCCCC)[C@@H](OCCCCCCCCCC)[C@@H]2O)O[C@H](COC)[C@@H](OP(=O)(O)O)[C@@H]1OCC[C@@H](CCCCCCC)OC [Eritoran tetrasodium]
outcome in clinical trials [2]: failed in clinical trials

CCN(CC)CCCC(C)Nc1ccnc2cc(Cl)ccc12 (centres unmarked) [chloroquine]
survival in polymicrobial sepsis model [3]: markedly improved survival

RQIKIWFQNRRMKWKKWFYERLVSLILRDTKV [TDIP1]
Kd (TIR domain of MAL): 4.49 ± 0.72 µM
Kd (TIR domain of MyD88): 2.8 ± 0.46 µM
remaining peptide after 48 h of incubation in human serum (Serum stability analysis): up to 50%
Kd (TIR domain of TRAM): 1.46 ± 0.11 µM

From article PMC11714206, “Massively Parallel Screening of Toll/Interleukin‐1 Receptor (TIR)‐Derived Peptides Reveals Multiple Toll‐Like Receptors (TLRs)‐Targeting Immunomodulatory Peptides” (Advanced Science, 2024)
